The values below come from patent US6797714B2, “Carboxyl substituted chroman derivatives useful as beta 3 adrenoreceptor agonists” (Bayer Pharmaceuticals Corporation, priority 1997, dated 2004).

A word on the melting point: it is the temperature, or range, at which the solid turns liquid. The compound `CCOC(=O)c1ccc2c(c1)CCC(CNC[C@H](O)c1cccc(Cl)c1)O2.Cl` (some centres unmarked) registered a melting point of 234 to 235 °C.

In the case of `CCOC(=O)CCc1ccc2c(c1)CCC(CNC[C@H](O)c1cccc(Cl)c1)O2.Cl` (some centres unmarked), the melting point fell in the range of 189 to 190 °C.
